Measurements reported in PubChem BioAssay (NCI).
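Method: 48-hour compound exposure of cells in 96-well plates, five concentrations, linear interpolation of endpoints. Here, GI50 denotes the concentration required for 50% inhibition of growth. TGI: concentration producing complete growth inhibition.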

Tests used:
Experiment in all cases: growth of human tumour cells (NCI), 48 h
[1] = system: NCI-H23 lung
[2] = system: ACHN renal
[3] = system: SW-620 colon
[4] = system: OVCAR-3 ovarian
[5] = system: MOLT-4 leukemia
[6] = system: SF-295 CNS
[7] = system: K-562 leukemia
[8] = system: HCT-116 colon
[9] = system: A549 NSCLC
[10] = system: U251 CNS
[11] = system: EKVX NSCLC
[12] = system: NCI-H522 lung
[13] = system: SK-MEL-5 melanoma
[14] = system: CCRF-CEM leukemia
[15] = system: UACC-257 melanoma
[16] = system: MALME-3M melanoma
[17] = system: TK-10 renal
[18] = system: 786-0 renal
[19] = system: SF-539 CNS
[20] = system: NCI-H460 lung
[21] = system: SR leukemia
[22] = system: SN12C renal
[23] = system: OVCAR-8 ovarian
[24] = system: KM12 colon
[25] = system: OVCAR-5 ovarian
[26] = system: A498 renal
[27] = system: SK-MEL-2 melanoma
[28] = system: NCI-H226 lung
[29] = system: HOP-62 NSCLC
[30] = system: SNB-75 CNS
[31] = system: PC-3 prostate
[32] = system: RPMI-8226 leukemia
[33] = system: HCC-2998 colon
[34] = system: MCF7 breast
[35] = system: SF-268 CNS
[36] = system: HT29 colon
[37] = system: SK-MEL-28 melanoma
[38] = system: HCT-15 colon
[39] = system: HS 578T breast
[40] = system: HL-60(TB) leukemia
[41] = system: CAKI-1 renal
[42] = system: UO-31 renal
[43] = system: MDA-MB-435
[44] = system: COLO 205 colon
[45] = system: M14 melanoma
[46] = system: SNB-19 CNS
[47] = system: UACC-62 melanoma
[48] = system: LOX IMVI melanoma
[49] = system: IGROV1 ovarian
[50] = system: NCI/ADR-RES ovarian
[51] = system: BT-549 breast
[52] = system: OVCAR-4 ovarian
[53] = system: MDA-MB-231 breast
[54] = system: RXF 393 renal
[55] = system: HOP-92 NSCLC
[56] = system: DU-145 prostate
[57] = system: T-47D breast
[58] = system: SK-OV-3 ovarian

SMILES: Cc1ncc([N+](=O)[O-])n1CCn1ccnc1[N+](=O)[O-]
- TGI [1]: > 100 µM
- TGI [2]: > 100 µM
- TGI [3]: > 100 µM
- TGI [4]: > 100 µM
- TGI [5]: > 100 µM
- TGI [6]: > 100 µM
- TGI [7]: > 100 µM
- TGI [8]: > 100 µM
- TGI [9]: > 100 µM
- TGI [10]: > 100 µM
- TGI [11]: > 100 µM
- TGI [12]: > 100 µM
- TGI [13]: > 100 µM
- TGI [14]: > 100 µM
- TGI [15]: > 100 µM
- TGI [16]: > 100 µM
- TGI [17]: 29 µM
- TGI [18]: > 100 µM
- TGI [19]: > 100 µM
- TGI [20]: > 100 µM
- TGI [21]: > 100 µM
- TGI [22]: > 100 µM
- TGI [23]: > 100 µM
- TGI [24]: > 100 µM
- TGI [25]: > 100 µM
- TGI [26]: > 100 µM
- TGI [27]: > 100 µM
- TGI [28]: > 100 µM
- TGI [29]: > 100 µM
- TGI [30]: > 100 µM
- TGI [31]: > 100 µM
- TGI [32]: > 100 µM
- TGI [33]: > 100 µM
- TGI [34]: > 100 µM
- TGI [35]: > 100 µM
- TGI [36]: > 100 µM
- TGI [37]: > 100 µM
- TGI [38]: > 100 µM
- TGI [39]: > 100 µM
- TGI [40]: > 100 µM

SMILES: CCCCC(CCCCCC(CCCC)C1NC(C)Cc2cc(OC)c(OC)cc21)C1NC(C)Cc2cc(OC)c(OC)cc21 (centres undefined)
- GI50 [1]: 1.67 µM
- TGI [1]: 3.2 µM
- GI50 [41]: 1.72 µM
- TGI [41]: 3.71 µM
- GI50 [2]: 1.76 µM
- TGI [2]: 3.21 µM
- GI50 [3]: 0.819 µM
- TGI [3]: 2.2 µM
- GI50 [4]: 1.83 µM
- TGI [4]: 3.27 µM
- GI50 [5]: 1.96 µM
- TGI [5]: 4.22 µM
- GI50 [42]: 1.67 µM
- TGI [42]: 3.73 µM
- GI50 [43]: 1.76 µM
- TGI [43]: 4.19 µM
- GI50 [6]: 1.83 µM
- TGI [6]: 3.79 µM
- GI50 [7]: 0.328 µM
- TGI [7]: 1.18 µM
- GI50 [8]: 1.49 µM
- TGI [8]: 2.96 µM
- GI50 [9]: 1.57 µM
- TGI [9]: 3.02 µM
- GI50 [10]: 1.29 µM
- TGI [10]: 2.63 µM
- GI50 [11]: 1.71 µM
- TGI [11]: 3.61 µM
- GI50 [44]: 0.294 µM
- TGI [44]: 0.842 µM
- GI50 [12]: 1.7 µM
- TGI [12]: 3.25 µM
- GI50 [45]: 1.79 µM
- TGI [45]: 3.39 µM
- GI50 [13]: 1.52 µM
- TGI [13]: 2.85 µM
- GI50 [14]: 2.15 µM
- TGI [14]: 4.66 µM
- GI50 [46]: 1.7 µM
- TGI [46]: 3.15 µM
- GI50 [15]: 1.71 µM
- TGI [15]: 3.22 µM
- GI50 [47]: 1.67 µM
- TGI [47]: 3.05 µM
- GI50 [16]: 1.9 µM
- TGI [16]: 3.94 µM
- GI50 [17]: 1.75 µM
- TGI [17]: 3.22 µM
- GI50 [18]: 1.69 µM
- TGI [18]: 3.15 µM
- GI50 [48]: 1.32 µM
- TGI [48]: 2.68 µM
- GI50 [19]: 1.76 µM
- TGI [19]: 3.21 µM
- GI50 [20]: 1.45 µM
- TGI [20]: 2.97 µM
- GI50 [49]: 1.94 µM
- TGI [49]: 4.26 µM
- GI50 [50]: 1.61 µM
- TGI [50]: 3.07 µM
- GI50 [51]: 1.79 µM
- TGI [51]: 3.26 µM
- GI50 [52]: 1.45 µM
- TGI [52]: 2.76 µM
- GI50 [53]: 1.28 µM
- TGI [53]: 2.6 µM
- GI50 [22]: 1.63 µM
- TGI [22]: 3.04 µM
- GI50 [23]: 1.73 µM
- TGI [23]: 3.29 µM
- GI50 [24]: 1.57 µM
- TGI [24]: 3.06 µM
- GI50 [25]: 1.82 µM
- TGI [25]: 3.25 µM
- GI50 [54]: 1.2 µM
- TGI [54]: 2.48 µM
- GI50 [26]: 1.41 µM
- TGI [26]: 2.73 µM
- GI50 [27]: 2.25 µM
- TGI [27]: 3.88 µM
- GI50 [28]: 1.53 µM
- TGI [28]: 3.01 µM
- GI50 [55]: 1.06 µM
- TGI [55]: 2.58 µM
- GI50 [29]: 1.47 µM
- TGI [29]: 2.88 µM
- GI50 [30]: 1.28 µM
- TGI [30]: 2.57 µM
- GI50 [56]: 1.8 µM
- TGI [56]: 3.23 µM
- GI50 [57]: 1.6 µM
- TGI [57]: 3.11 µM
- GI50 [31]: 1.77 µM
- TGI [31]: 3.51 µM
- GI50 [32]: 1.99 µM
- TGI [32]: 4.43 µM
- GI50 [33]: 0.25 µM
- TGI [33]: 0.742 µM
- GI50 [34]: 1.19 µM
- TGI [34]: 2.52 µM
- GI50 [35]: 1.64 µM
- TGI [35]: 3.08 µM
- GI50 [36]: 0.34 µM
- TGI [36]: 1.19 µM
- GI50 [37]: 1.6 µM
- TGI [37]: 2.95 µM
- GI50 [58]: 1.57 µM
- TGI [58]: 2.91 µM
- GI50 [38]: 1.31 µM
- TGI [38]: 2.76 µM
- GI50 [39]: 1.43 µM
- TGI [39]: 3.6 µM
- GI50 [40]: 1.84 µM
- TGI [40]: 3.79 µM
